# Literature values as cited in patent US20210251893A1, “Compositions and Methods for Treating Ocular Diseases” (Ocular Therapeutix, Inc., priority 2020, published 2021).
# Tests used:
# FP prostanoid receptor = FP prostanoid receptor (Homo sapiens, UniProt P43088)
# FP prostanoid receptor, sequence (P43088 whole entry): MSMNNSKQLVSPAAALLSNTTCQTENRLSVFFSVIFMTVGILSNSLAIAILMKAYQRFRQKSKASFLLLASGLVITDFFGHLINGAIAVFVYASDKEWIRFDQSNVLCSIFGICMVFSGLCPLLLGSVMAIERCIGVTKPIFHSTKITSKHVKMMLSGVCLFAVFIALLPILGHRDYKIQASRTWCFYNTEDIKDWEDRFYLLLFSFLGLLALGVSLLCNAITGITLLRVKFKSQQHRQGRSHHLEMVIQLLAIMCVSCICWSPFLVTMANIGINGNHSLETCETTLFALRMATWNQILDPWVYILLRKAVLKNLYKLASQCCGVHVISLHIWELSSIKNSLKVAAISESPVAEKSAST
compound,measurement,setting,value
CC(C)OC(=O)CCC/C=C\C[C@@H]1[C@@H](CC[C@@H](O)CCc2ccccc2)[C@H](O)C[C@@H]1O [Latanoprost],Solubility in aqueous solutions,,relatively low solubility
CC(C)OC(=O)CCC/C=C\C[C@@H]1[C@@H](/C=C/[C@@H](O)COc2cccc(C(F)(F)F)c2)[C@H](O)C[C@@H]1O [Travoprost],Affinity for the prostaglandin FP receptor,FP prostanoid receptor,high affinity
O=C(O)CCC/C=C\C[C@@H]1[C@@H](/C=C/[C@@H](O)COc2cccc(C(F)(F)F)c2)[C@H](O)C[C@@H]1O [free acid of travoprost],Potency and selectivity for the FP prostanoid receptor,FP prostanoid receptor; compared to latanoprost,higher potency and greater selectivity
